Where two headings read alike, the source gives them in different places.
Legend:
[1] = target: T1, human cytochrome P450 family 11B1 (Cyp11B1), 11β-hydroxylase (Homo sapiens, UniProt P15538); experiment: Cyp11B1 (11β-hydroxylase) inhibition in stably transfected Y1-Cyp11B1 cells, substrate 11-deoxycortisol (RSS); assay type: cell-based
T1 construct: the full-length cDNAs for the proteins were subcloned into the multicloning site of pcDNA3.1 (zeo); expressed in transfected cells
T1 sequence (P15538 25-503): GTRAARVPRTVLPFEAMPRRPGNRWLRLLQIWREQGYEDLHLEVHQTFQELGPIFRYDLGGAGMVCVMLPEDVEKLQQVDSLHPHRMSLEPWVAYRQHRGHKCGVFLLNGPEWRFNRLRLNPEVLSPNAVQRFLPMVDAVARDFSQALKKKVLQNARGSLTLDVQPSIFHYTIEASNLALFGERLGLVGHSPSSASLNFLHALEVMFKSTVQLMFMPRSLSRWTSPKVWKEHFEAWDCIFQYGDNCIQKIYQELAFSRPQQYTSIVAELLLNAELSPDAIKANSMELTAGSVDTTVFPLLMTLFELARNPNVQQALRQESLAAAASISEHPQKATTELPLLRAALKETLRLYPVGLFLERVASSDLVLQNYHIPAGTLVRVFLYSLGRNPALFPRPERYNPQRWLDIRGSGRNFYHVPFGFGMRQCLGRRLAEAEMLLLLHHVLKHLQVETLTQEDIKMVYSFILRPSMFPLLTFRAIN
Text: (§1) Plasmid constructs and transfection: To induce expression of human cytochrome P450 family 11B1 (Cyp11B1) and Cyp11B2 enzymes in Y1 cells, the full-length cDNAs for the proteins were subcloned into the multicloning site of pcDNA3.1 (zeo) (Invitrogen, Eggenstein, Germany). The cDNA fragments were isolated by PCR and digested by EcoRI. The individual fragments were ligated into the linearized vectors digested by EcoRI. Human Cyp11B1 and Cyp11B2 enzymes were expressed in Y1 cells using liposome/lipid-mediated DNA transfection. Purified plasmid DNA was mixed with Lipofectamine (Invitrogen) transfection reagents according to the manufacturer's protocol. To generate a stable Y1-Cyp11B1 and Y1-Cyp11B2 cell line, Y1 cells were transfected with the pcDNA3.1 (zeo)-Cyp11B1 and pcDNA3.1 (zeo)-Cyp11B2 vector, respectively.
(§2) Transfected cells were selected with 1000 μg/ml zeocin (Invitrogen). To screen colonies, Western blotting and real-time PCR were used to determine the level of Cyp11B1 and Cyp11B2 expression. Colonies with the highest Cyp11B expression were further tested for their ability to synthesize cortisol or aldosterone from deoxycortisol (RSS) and 11-deoxycorticosterone (DOC), respectively. Experimental protocols were standardized regarding substrate concentrations and incubation periods.
In vitro evaluation of specificity: To evaluate Cyp11B1 and Cyp11B2 inhibition by the inventive compounds, Y1-Cyp11B1 and Y1-Cyp11B2 cells were subcultured on six-well plates (0.5×10^6 cells per well) in 2 ml culture medium.
(§3) The enzyme reaction was started after 24 hours by the addition of 1 ml culture medium containing either 11-deoxycortisol (RSS) or 11-deoxycorticosterone (DOC) as substrate and the corresponding inhibitor. RSS and DOC were dissolved in ethanol to a final test concentration of 1 μM. For determination of IC50 values, the inhibitors were added to the culture medium at concentrations between 0.6 nM and 60 μM and incubated for 48 h. Y1-Cyp11B1 and Y1-Cyp11B2 cells, which were treated in the same way but without inhibitors, served as controls. As further controls, untransfected Y1 cells were also incubated with RSS and DOC, respectively. Both RSS and DOC were obtained from Sigma (Deisenhofen, Germany).

[2] = target: T2, human Cyp11B2, aldosterone synthase (Homo sapiens, UniProt P19099); experiment: Cyp11B2 (aldosterone synthase) inhibition in stably transfected Y1-Cyp11B2 cells, substrate 11-deoxycorticosterone (DOC); assay type: cell-based
T2 construct: the full-length cDNAs for the proteins were subcloned into the multicloning site of pcDNA3.1 (zeo); expressed in transfected cells
T2 sequence (P19099 25-503): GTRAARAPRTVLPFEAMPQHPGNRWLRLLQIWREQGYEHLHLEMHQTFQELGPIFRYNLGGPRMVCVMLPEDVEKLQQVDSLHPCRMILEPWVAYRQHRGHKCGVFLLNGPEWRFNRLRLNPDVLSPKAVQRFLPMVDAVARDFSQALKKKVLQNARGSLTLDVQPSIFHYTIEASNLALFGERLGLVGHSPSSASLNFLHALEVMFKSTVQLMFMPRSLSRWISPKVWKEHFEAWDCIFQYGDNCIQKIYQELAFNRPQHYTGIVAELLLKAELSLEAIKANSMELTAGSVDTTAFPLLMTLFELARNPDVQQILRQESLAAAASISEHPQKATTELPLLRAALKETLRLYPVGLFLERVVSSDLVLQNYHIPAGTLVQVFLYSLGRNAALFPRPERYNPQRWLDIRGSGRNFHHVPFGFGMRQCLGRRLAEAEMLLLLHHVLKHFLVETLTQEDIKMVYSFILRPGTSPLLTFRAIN
Text: as §1, §2
as §3, with “For determination of IC50 values, the inhibitors were added to the culture medium at concentrations between 0.6 nM and 60 μM and incubated for 48 h.” left out

[3] = system: adrenal glands; experiment: Uptake in adrenal glands in mice, ex vivo gamma counting; conditions: male CD-1 mice; for uptake in adrenal glands compared to IMTO: i.v. 1 μCi (37 kBq), 15, 30, 120 and 240 min, 2a especially after 120 and 240 minutes, 2e at any time point
Experimental: The uptake of IMTO, (R)-1-[1-(4-iodophenyl)ethyl]-1H-imidazole-5-carboxylic acid ethyl-methyl amide (compound 2a) and (R)-1-[1-(4-iodophenyl)ethyl]-1H-imidazole-5-carboxylic acid azetidinylamide (compound 2e) in adrenal glands in mice in ex vivo experiments has been examined as follows. Male CD-1 mice were injected i.v. with 1 μCi (37 kBq) IMTO, (R)-1-[1-(4-[^125I]iodophenyl)ethyl]-1H-imidazole-5-carboxylic acid ethyl-methyl amide or (R)-1-[1-(4-iodophenyl)ethyl]-1H-imidazole-5-carboxylic acid azetidinylamide (compound 2e). At predefined time points (15 min, 30 min, 120 min, and 240 min) mice were killed (n≧6 per time point) and adrenals were excised and weighed. Radioactivity was measured using a gamma-counter.

[4] = system: adrenal gland and other organs; experiment: Biodistribution in mice; assay type: in vivo; conditions: male CD-1 mice, i.v. 37 kBq, 15 min to 4 h
Experimental: The biodistribution of IMTO, (R)-1-[1-(4-iodophenyl)ethyl]-1H-imidazole-5-carboxylic acid ethyl-methyl amide (compound 2a) and (R)-1-[1-(4-iodophenyl)ethyl]-1H-imidazole-5-carboxylic acid azetidinylamide (compound 2e) has been assessed in mice as follows. Male CD-1 mice were injected iv with 1 μCi (37 kBq) (R)-1-[1-(4-[^125I]iodophenyl)ethyl]-1H-imidazole-5-carboxylic acid ethyl-methyl amide. At predefined time points (15 min, 30 min, 2 h, and 4 h), mice were killed (n 6 per time point). Blood was collected, and heart, lung, liver, intestine, stomach, spleen, kidneys, adrenals, testes, brain and other organs were excised and weighed. Radioactivity was measured using a gamma-counter.

[5] = Metabolization of IMTO in the blood of patients; conditions: iodometomidate acid identified after few minutes as product of enzymatic hydrolysis
[6] = target: T3, Cyp11B1 (Homo sapiens, UniProt P15538); conditions: in contrast to IMTO; cited from earlier work
T3 sequence (P15538 25-503): T1 sequence (P15538 25-503)

[7] = target: T4, CYP11B2 (Homo sapiens, UniProt P19099); conditions: in contrast to IMTO; cited from earlier work
T4 sequence (P19099 25-503): T2 sequence (P19099 25-503)

[8] = system: adrenocortical carcinoma; conditions: advanced disease, retrospective analyses; cited from earlier work
[9] = Y1-Cyp11B1 cells, 1 μM RSS, 48 h incubation, read-out: IC50 11β-hydroxylase
[10] = Y1-Cyp11B2 cells, 1 μM DOC, 48 h incubation, read-out: IC50 aldosterone synthase

SMILES | IC50 [1] [µM] | IC50 [2] [µM] | also measured
CCN(C)C(=O)c1cncn1[C@H](C)c1ccc(I)cc1 [2a, (R)-1-[1-(4-Iodophenyl)ethyl]-1H-imidazole-5-carboxylic acid ethylmethylamide] | 0.0039 ± 0.0006 | 0.0042 ± 0.00037 | uptake in adrenal glands compared to IMTO [3]: increased; biodistribution: organ of predominant uptake [4]: predominately in adrenal gland
CCN(CC)C(=O)c1cncn1[C@H](C)c1ccc(I)cc1 [2b] | 0.0366 | 0.0109 ± 0.00202 | –
C[C@H](c1ccc(I)cc1)n1cncc1C(=O)N1CCC1 [2e, (R)-1-[1-(4-Iodophenyl)ethyl]-1H-imidazole-5-carboxylic acid azetidinylamide] | 0.00316 ± 0.00014 | 0.00122 ± 8e-05 | uptake in adrenal glands compared to IMTO [3]: greatly increased; factor of increase of adrenal uptake compared to IMTO ([3]; i.v., after 240 minutes): about 10; biodistribution: organ of predominant uptake [4]: predominately in adrenal gland
C[C@H](c1ccc(I)cc1)n1cncc1C(=O)N1CCCCC1 [2g] | – | – | IC50 [1, 9]: 0.0117 µM; IC50 [2, 10]: 0.0055 ± 0.0022 µM
C[C@H](c1ccc(I)cc1)n1cncc1C(=O)N1CCOCC1 [2h] | – | – | IC50 [1, 9]: 0.805 µM; IC50 [2, 10]: 0.182 µM
C[C@H](c1ccc(I)cc1)n1cncc1C(=O)N(C)C [2i] | > 1 | 0.0157 | –
C[C@H](c1ccc(I)cc1)n1cncc1C(N)=O [2j] | 0.329 ± 0.31 | 1.41 ± 2.07 | –
C[C@H](c1ccc(I)cc1)n1cncc1C(=O)NCCO [2k] | 0.336 ± 0.398 | 0.221 ± 0.168 | –
CCCN(C)C(=O)c1cncn1[C@H](C)c1ccc(I)cc1 [2l] | 0.0747 | 0.0035 ± 0.0075 | –
CC(C)N(C)C(=O)c1cncn1[C@H](C)c1ccc(I)cc1 [2m] | 0.0782 | 0.147 ± 0.0619 | –
CCCN(CC)C(=O)c1cncn1[C@H](C)c1ccc(I)cc1 [2n] | 1.32 | 0.39 ± 0.17 | –
Cc1nnc(-c2cncn2[C@H](C)c2ccc(I)cc2)o1 [6a] | – | – | IC50 [1, 9]: 0.0106 ± 0.0092 µM; IC50 [2, 10]: 0.0901 µM
COC(=O)c1cncn1[C@H](C)c1ccc(I)cc1 [iodometomidate (IMTO), 4-Iodometomidate, reference compound] | 0.0026 ± 0.0011 | 0.002 ± 0.0023 | biological half-life in the blood of patients [5]: very limited
C[C@H](c1ccc(I)cc1)n1cncc1C(=O)O [iodometomidate acid, (R)-1-[1-(4-Iodophenyl)ethyl]-1H-imidazole-5-carboxylic acid] | – | – | affinity to Cyp11B1 [6]: little or no affinity; affinity to CYP11B2 [7]: little or no affinity
Clc1ccc(C(c2ccccc2Cl)C(Cl)Cl)cc1 (centres unmarked) [mitotane] | – | – | overall response rate [8]: 26%

— patent publication US9814789B2, “Radiopharmaceutical products for diagnosis and therapy of adrenal carcinoma” (JULIUS-MAXIMILIANS-UNIVERSITÄT WÜRZBURG, priority 2012, dated 2017)
